The experiment has as its target T1, dihydrofolate reductase (Homo sapiens, UniProt P00374).
T1 sequence (P00374 1-187): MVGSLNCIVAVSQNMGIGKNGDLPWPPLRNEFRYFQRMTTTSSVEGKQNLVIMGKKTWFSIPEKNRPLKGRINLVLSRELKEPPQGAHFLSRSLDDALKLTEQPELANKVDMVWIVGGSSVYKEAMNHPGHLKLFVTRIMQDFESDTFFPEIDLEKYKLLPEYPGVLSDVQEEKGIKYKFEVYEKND
Kind of experiment: Dihydrofolate reductase enzyme inhibition assay. The class given is biochemical. Conditions: for inhibition at 500 µM: read-out: % inhibition (0.5 mM).

A word on the IC50: it is the point on the concentration scale where inhibition reaches its midpoint. As usually defined, the inhibition is the drop in the measured response relative to a control, in per cent. With `S=C(NN=Cc1ccc(N2CCCC2)cc1)NC1CCCCC1` [Compound 5a, N-Cyclohexyl-2-[4-(pyrrolidin-1-yl)benzylidene]hydrazinecarbothioamide], the IC50 came out at 29.1 ± 0.38 µM and the inhibition at 500 µM came out at 83.6%.
As for `Fc1ccc(NC(=S)NN=Cc2ccc(N3CCCC3)cc2)cc1` [Compound 5b, N-(4-Fluorophenyl)-2-[4-(pyrrolidin-1-yl)benzylidene]hydrazinecarbothioamide], inhibition was half-maximal at 33.1 ± 0.71 µM (IC50) and the inhibition at 500 µM was determined as 80.6%.
In the case of `S=C(NN=Cc1ccc(N2CCCC2)cc1)Nc1cccc(Cl)c1Cl` [Compound 5c, N-(2,3-Dichlorophenyl)-2-[4-(pyrrolidin-1-yl)benzylidene]hydrazinecarbothioamide], 36.2 ± 0.69 µM corresponded to half-maximal inhibition (IC50) and the inhibition at 500 µM came to 81.3%.
Turning to `COc1ccc(NC(=S)NN=Cc2ccc(N3CCCC3)cc2)cc1` [Compound 5d, N-(4-Methoxyphenyl)-2-[4-(pyrrolidin-1-yl)benzylidene]hydrazinecarbothioamide], it took 12.4 ± 0.48 µM to reach half-maximal inhibition (IC50) and the inhibition at 500 µM stood at 91.1%.
The matching figures for `Cc1cccc(C)c1NC(=S)NN=Cc1ccc(N2CCCC2)cc1` [Compound 5e, N-(2,6-Dimethylphenyl)-2-[4-(pyrrolidin-1-yl)benzylidene]hydrazinecarbothioamide]: 15.3 ± 0.26 µM and 90.2%.
On to `S=C(NN=Cc1ccc(N2CCCC2)cc1)Nc1ccccc1` [Compound 5f, N-Phenyl-2-[4-(pyrrolidin-1-yl)benzylidene]hydrazinecarbothioamide], for which 21.2 ± 0.44 µM corresponded to half-maximal inhibition (IC50) and the inhibition at 500 µM turned out to be 86.2%.
For `Cc1ccc(NC(=S)NN=Cc2ccc(N3CCCC3)cc2)cc1` [Compound 5g, 2-[4-(Pyrrolidin-1-yl)benzylidene]-N-(p-tolyl)hydrazinecarbothioamide], the 50% inhibitory concentration (IC50) was determined as 14.4 ± 0.29 µM and the inhibition at 500 µM is 89.5%.
Take `COc1cccc(NC(=S)NN=Cc2ccc(N3CCCC3)cc2)c1` [Compound 5h, N-(3-Methoxyphenyl)-2-[4-(pyrrolidin-1-yl)benzylidene]hydrazinecarbothioamide]: the IC50 stood at 23.1 ± 0.35 µM and the inhibition at 500 µM is 86.7%.
As for `S=C(NCc1ccc(Cl)cc1)NN=Cc1ccc(N2CCCC2)cc1` [Compound 5i, N-(4-Chlorobenzyl)-2-[4-(pyrrolidin-1-yl)benzylidene]hydrazinecarbothioamide], the IC50 was determined as 27.5 ± 0.5 µM and the inhibition at 500 µM stood at 83.9%.
On to `O=[N+]([O-])c1ccc(NC(=S)NN=Cc2ccc(N3CCCC3)cc2)cc1` [Compound 5j, N-(4-Nitrophenyl)-2-[4-(pyrrolidin-1-yl)benzylidene]hydrazinecarbothioamide], for which the IC50 came to 54.1 ± 0.72 µM and the inhibition at 500 µM was 74.1%.
For the compound `S=C(NCCN1CCOCC1)NN=Cc1ccc(N2CCCC2)cc1` [Compound 5k, N-(2-Morpholinoethyl)-2-[4-(pyrrolidin-1-yl)benzylidene]hydrazinecarbothioamide], the IC50 was found to be 40.6 ± 0.59 µM and the inhibition at 500 µM stood at 76.9%.
The matching figures for `S=C(NCCc1ccccc1)NN=Cc1ccc(N2CCCC2)cc1` [Compound 5l, N-Phenethyl-2-[4-(pyrrolidin-1-yl)benzylidene]hydrazinecarbothioamide]: 12.4 ± 0.25 µM and 91.5%.
With `S=C(NN=Cc1ccc(N2CCCC2)cc1)Nc1ccc(Br)cc1` [Compound 5m, N-(4-Bromophenyl)-2-[4-(pyrrolidin-1-yl)benzylidene]hydrazinecarbothioamide], 16.3 ± 0.26 µM corresponded to half-maximal inhibition (IC50) and the inhibition at 500 µM came out at 90.8%.
Consider `S=C(NN=Cc1ccc(N2CCCC2)cc1)Nc1cccc(Br)c1` [Compound 5n, N-(3-Bromophenyl)-2-[4-(pyrrolidin-1-yl)benzylidene]hydrazinecarbothioamide], for which the IC50 is 22.1 ± 0.37 µM and the inhibition at 500 µM was 88.2%.
On to `O=[N+]([O-])c1cccc(NC(=S)NN=Cc2ccc(N3CCCC3)cc2)c1` [Compound 5o, N-(3-Nitrophenyl)-2-[4-(pyrrolidin-1-yl)benzylidene]hydrazinecarbothioamide], for which half-maximal inhibition (IC50) required 45.3 ± 0.63 µM and the inhibition at 500 µM stood at 75.6%.
Consider `S=C(NCc1ccccc1)NN=Cc1ccc(N2CCCC2)cc1` [Compound 5p, N-Benzyl-2-[4-(pyrrolidin-1-yl)benzylidene]hydrazinecarbothioamide], for which the IC50 is 48.2 ± 0.6 µM and the inhibition at 500 µM came to 74.6%.
As to `Fc1ccccc1NC(=S)NN=Cc1ccc(N2CCCC2)cc1` [Compound 5q, N-(2-Fluorophenyl)-2-[4-(pyrrolidin-1-yl)benzylidene]hydrazinecarbothioamide], half-maximal inhibition (IC50) was put at 35.3 ± 0.59 µM and the inhibition at 500 µM was determined as 77.3%.
As to `Cc1ccc(CNC(=S)NN=Cc2ccc(N3CCCC3)cc2)cc1` [Compound 5r, N-(4-Methylbenzyl)-2-[4-(pyrrolidin-1-yl)benzylidene]hydrazinecarbothioamide], it took 42.2 ± 0.63 µM to reach half-maximal inhibition (IC50) and the inhibition at 500 µM stood at 79.8%.

Values taken from publication PMC11460214 (RSC Advances, 2024).
